The text below walks through data of patent publication US5648259A, “Polypeptides having NMDA receptor activity, nucleic acids encoding those polypeptides and applications” (priority 1992, dated 1997).

The test system of experiment [1] is GR33 polypeptide SEQ ID No. 2. Briefly: Pharmacological and electrophysiological study of Xenopus eggs microinjected with GR33 mRNA (induced current under applied potential). It counts as cell-based, rat. The conditions noted are these: for effect on response induced by NMDA (200 μM): antagonist applied (200 μM) simultaneously with NMDA; for effect of competitive antagonist on responses to NMDA: concentration not given. Here is the method:
The cDNA fragment isolated in Example 2 was transcribed into mRNA and microinjected into Xenopus eggs. The microinjected eggs thereby obtained were then tested for their capacity to bind certain labelled NMDA receptor ligands, or for their behaviour with respect to modulators of NMDA receptors.
The plasmid containing the 1.7-kb cDNA coding for the GR33 polypeptide SEQ ID No. 2 was linearized in the presence of the enzyme SmaI, and then subjected to a transcription step in the presence of phage T7 RNA polymerase. Transcription was performed using the Stratagene Kit according to the manufacturer's recommendations.
The synthetic RNA obtained above, dissolved in sterile water, was used (5 ng) for injection into mature Xenopus eggs (stages V and VI) in a volume of 50 nl. The eggs were then maintained for 3 days at 19° C. in multi well plates in a Barth medium supplemented with antibiotics (Miledi and Sumikawa, Biomed. Res. 3 (1982) 390).
The eggs thereby obtained were then tested for the presence of functional NMDA receptors at their surface. For this purpose, the eggs were transferred to modified OR-2 medium lacking magnesium, of composition: 88 mM NaCl, 2.5 mM KCl, 1 mM CaCl2, 10 mM HEPES buffer, pH 7.4 adjusted with sodium hydroxide. The different drugs (ligands or modulators) were applied by perfusion (10 ml/min) for 10-30 seconds under an applied potential difference of -80 or -90 mV.

The test system of experiment [2] is GR33 polypeptide SEQ ID No. 2. The experiment is described as above. It counts as cell-based, rat.
The next experiment relates to known NMDA receptors. The conditions noted are these: cited from earlier work.

Regarding `N[C@H](CCCP(=O)(O)O)C(=O)O` [AP5, D-2-amino-5-phosphonovaleric acid], in experiment [1], the “effect on response induced by NMDA (200 μM)” value (“effect on response induced” below) is “abolished” and the “effect of competitive antagonist on responses to NMDA” value is reported as “reduced”.
The corresponding values for `N[C@H](CCCCCP(=O)(O)O)C(=O)O` [AP7, D-2-amino-7-phosphonoheptanoic acid] are “abolished” and “reduced”.
On to `CN[C@H](CC(=O)O)C(=O)O` [NMDA, N-methyl-D-aspartate], for which the EC50 in experiment [1] (GR33 expressed in Xenopus eggs, read-out: NMDA concentration giving 50% of the maximum response (ED50)) was ~10 µM.
As to `[Ca+2]` [calcium], the “effect on response induced” value in experiment [2] (external calcium concentration increased to 2.5 mM) was “decreased”. Also, the “effect of calcium on GR33 activity” value in experiment [1] is listed as “inhibitory effect”. Besides, in the experiment with known NMDA receptors, the “effect on activity of known NMDA receptors” value is “stimulates”.
On to `N[C@@H](CCC(=O)O)C(=O)O` [glutamate, Glutamic acid], for which the “strength of response among excitatory amino acids tested (glutamate, kainate, quisqualate, homocysteate)” value in experiment [1] is recorded as “strongest responses”. Also, the “induction of inward current” value in experiment [1] (glutamate 0.1-1 mM, perfusion 10-30 s, -80 or -90 mV) was “induces an inward current”.
`C=C(C)[C@H]1CN[C@H](C(=O)O)[C@H]1CC(=O)O` [kainate]: in experiment [1] (kainate), the “induction of inward current” value is “little or no effect”.
On to `[Mg+2]` [magnesium], for which the “effect on response induced” value in experiment [2] (magnesium 200 μM added to the medium) is on record as “decreased”. Further, in experiment [1], the “inhibitory effect of magnesium on GR33 activity” value is 30-70%. The “effect on activity of known NMDA receptors” value in the experiment with known NMDA receptors is “completely inhibits”.
With `N[C@@H](Cn1oc(=O)[nH]c1=O)C(=O)O` [quisqualate], in experiment [1] (quisqualate 50 μM), the “induction of inward current” value is given as “little or no effect”.
